Series [1] addresses bovine serum albumin (BSA) (Bos taurus, UniProt P02769). Briefly: Albumin binding by ammonium sulfate precipitation and LCMS. The format is in vitro ADME. The following applies: bovine serum albumin (BSA) solution, 10 uM drug, 1.4 mg/mL BSA in normal saline, 30 minutes ambient, supernatant, average of four separate days. How it is done: Sirolimus-albumin binding has previously been reported. […] The drug spiked BSA solutions were mixed by inversion and allowed to equilibrate at ambient temperature for 30 minutes to allow drug binding to the albumin protein. 826 mg ammonium sulfate was next added to each sample and mixed by gentle inversion until the salt had completely dissolved and precipitate formed. Samples were then vortexed for 20 seconds then centrifuged for 6.5 minutes at 7200×g. To both supernatant and separated precipitate 0.750 mL methanol and 0.250 mL acetonitrile containing internal standard was added to each sample. Samples were tested for drug content by LCMS where the supernatant amount represents unbound drug and the precipitate amount the bound drug. Recovery verifiction tests were performed as above but using solutions of saline plus drug without BSA.
Values reported are the average of a separate test on each of four separate days.

The conditions of series [2]: Porcine Coronary Arteries, from US 2014/0046254, cited from earlier work.

Each structure is given as a SMILES string. Like-named read-outs stand apart in the source and are kept apart here.

bovine serum albumin (BSA), sequence (P02769 25-607): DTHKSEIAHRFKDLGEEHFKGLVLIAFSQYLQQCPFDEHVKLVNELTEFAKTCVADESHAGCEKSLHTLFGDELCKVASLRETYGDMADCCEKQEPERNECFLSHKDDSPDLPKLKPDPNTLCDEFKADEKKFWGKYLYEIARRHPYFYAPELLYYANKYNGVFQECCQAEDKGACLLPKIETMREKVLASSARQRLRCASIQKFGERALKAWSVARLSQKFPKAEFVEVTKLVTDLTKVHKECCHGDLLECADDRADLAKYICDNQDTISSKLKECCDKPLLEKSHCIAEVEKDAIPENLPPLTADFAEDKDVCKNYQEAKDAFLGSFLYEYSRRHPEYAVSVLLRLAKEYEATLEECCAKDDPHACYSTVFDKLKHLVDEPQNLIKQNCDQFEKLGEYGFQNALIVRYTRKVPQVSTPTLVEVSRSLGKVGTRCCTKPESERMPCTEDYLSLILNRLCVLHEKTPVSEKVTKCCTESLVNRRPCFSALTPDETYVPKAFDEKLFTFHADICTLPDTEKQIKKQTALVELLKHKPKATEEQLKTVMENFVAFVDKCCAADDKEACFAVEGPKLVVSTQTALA

As a reminder, the fraction unbound is the share of the substance not bound to proteins or other matrix. For the compound `CO[C@H]1C[C@@H]2CC[C@@H](C)[C@@](O)(O2)C(=O)C(=O)N2CCCC[C@H]2C(=O)O[C@H]([C@H](C)C[C@@H]2CC[C@@H](O)[C@H](OC)C2)CC(=O)[C@H](C)/C=C(\C)[C@@H](O)[C@@H](OC)C(=O)[C@H](C)C[C@H](C)/C=C/C=C/C=C/1C` [Sirolimus], the fraction unbound at 30 min, 10 uM in series [1] stood at 0.062.
`CO[C@H]1C[C@@H]2CC[C@@H](C)[C@@](O)(O2)C(=O)C(=O)N2CCCC[C@H]2C(=O)O[C@H]([C@H](C)C[C@@H]2CC[C@@H](OCCO)[C@H](OC)C2)CC(=O)[C@H](C)/C=C(\C)[C@@H](O)[C@@H](OC)C(=O)[C@H](C)C[C@H](C)/C=C/C=C/C=C/1C` [US 2014/0046254 Everolimus, Everolimus]: the “Normalized Uptake (ng drug/mg tissue/μg drug on balloon)” value in series [2] (3 days) was 0.02 ng/mg/µg.
For `CO[C@H]1C[C@@H]2CC[C@@H](C)[C@@](O)(O2)C(=O)C(=O)N2CCCC[C@H]2C(=O)O[C@H]([C@H](C)C[C@@H]2CC[C@H](n3cnnn3)[C@H](OC)C2)CC(=O)[C@H](C)/C=C(\C)[C@@H](O)[C@@H](OC)C(=O)[C@H](C)C[C@H](C)/C=C/C=C/C=C/1C` [US 2014/0046254 Zotarolimus, Zotarolimus], in series [2] (7 days), the “Normalized Uptake (ng drug/mg tissue/μg drug on balloon)” value was 0.04 ng/mg/µg.
